Assay results published in ChEMBL document CHEMBL3352453, “Inhibitory potency of flavonoid derivatives on influenza virus neuraminidase” (Bioorg Med Chem Lett, 2014).

Key:
[1] = Inhibition of influenza B virus (B/Brisbane/60/2008) neuraminidase using MUNANA substrate pre-incubated for 30 mins before substrate addition by fluorometric assay
[2] = Cytotoxicity against MDCK cells; format: cell-based, Canis lupus familiaris; details: dog
[3] = Selectivity index, ratio of CC50 for MDCK cells to IC50 for influenza A virus (A/Perth/16/2009(H3N2)); format: functional

SMILES | IC50 [1] [µM] | CC50 [2] [µM] | Ratio CC50/IC50 [3]
O=c1cc(-c2ccc(O)c(O)c2)oc2cc(O[C@@H]3O[C@H](CO)[C@@H](O)[C@H](O)[C@H]3O)cc(O)c12 [GALUTEOLIN] | 57.2 | > 446 | >6.7
O=c1c(O[C@@H]2O[C@H](CO)[C@H](O)[C@H](O)[C@H]2O)c(-c2ccc(O)c(O)c2)oc2cc(O)cc(O)c12 [HYPEROSIDE] | 88.1 | > 431 | >6.9
O=c1c(O[C@@H]2O[C@H](CO)[C@@H](O)[C@H](O)[C@H]2O)c(-c2ccc(O)c(O)c2)oc2cc(O)cc(O)c12 [ISOQUERCETIN] | 384 | > 431 | >1.2
O=c1c(O)c(-c2ccc(O)cc2)oc2cc(O)cc(O)c12 [KAEMPFEROL] | 90.8 | 581 | 6.8
CCOC(=O)C1=C[C@@H](OC(CC)CC)[C@H](NC(C)=O)[C@@H](N)C1 [OSELTAMIVIR] | 0.0454 | – | –
C[C@@H]1O[C@@H](Oc2c(-c3ccc(O)c(O)c3)oc3cc(O)cc(O)c3c2=O)[C@H](O)[C@H](O)[C@H]1O [QUERCITRIN] | 112 | > 446 | >4.1
C[C@@H]1O[C@@H](OC[C@H]2O[C@@H](Oc3c(-c4ccc(O)c(O)c4)oc4cc(O)cc(O)c4c3=O)[C@H](O)[C@@H](O)[C@@H]2O)[C@H](O)[C@H](O)[C@H]1O [RUTIN] | 105 | > 328 | >3.4
